Assay results published in US8461209B2, “Malonic acid sulfonamide derivative and pharmaceutical use thereof” (Mitsubishi Tanabe Pharma Corporation, priority 2007, dated 2013).

The compounds below were run against T1, human recombinant AT2 receptor (Homo sapiens, UniProt P50052) (assay: Affinity for AT2 receptor (receptor binding assay)). Details: membrane fraction from HeLa cells expressing human recombinant AT2 receptor; 125I-[Sar1, Ile8]-Ang II 0.1 nmol/L.
T1 construct: purchased PerkinElmer 6110538; host or cells: HeLa cells
T1 sequence (P50052 1-363): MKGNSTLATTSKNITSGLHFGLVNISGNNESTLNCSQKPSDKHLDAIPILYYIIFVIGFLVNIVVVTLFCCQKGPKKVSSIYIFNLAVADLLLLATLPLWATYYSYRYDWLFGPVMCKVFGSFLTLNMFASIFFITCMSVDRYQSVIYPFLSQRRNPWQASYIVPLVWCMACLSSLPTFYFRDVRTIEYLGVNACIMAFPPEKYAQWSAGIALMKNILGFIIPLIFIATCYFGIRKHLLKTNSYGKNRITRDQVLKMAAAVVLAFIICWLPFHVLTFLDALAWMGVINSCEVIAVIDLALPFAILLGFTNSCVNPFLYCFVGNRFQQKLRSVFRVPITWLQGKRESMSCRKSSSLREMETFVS
Procedure: Using a commercially available receptor membrane fraction (PerkinElmer, Cat No. 6110538) obtained from HeLa cells expressing human recombinant AT2 receptor, a receptor binding assay was performed. ^125I-[Sar^1, Ile^8]-Ang II (0.8 kBq, final concentration 0.1 nmol/L) and various concentrations of the compound of the present invention were added to a solution of 50 mmol/L Tris-HCl (pH 7.4), 125 mmol/L NaCl, 6.5 mmol/L MgCl2 and 1 mmol/L EDTA containing the receptor membrane fraction, and the mixture was incubated at room temperature for 90 min. Bound or free ^125I-[Sar^1, Ile^8]-Ang II was separated with a glass fiber filter (Millipore, MultiScreen FB Plate), and the radioactivity of ^125I-[Sar^1, Ile^8]-Ang II bound to the receptor was determined. […] On the other hand, Kd value of ^125I-[Sar^i, Ile^8]-Ang II for AT2 receptor in the absence of the compound of the present invention was determined by Scatchard analysis. Using the IC50 value obtained from the concentration-response curve and the Kd value of ^125I-[Sar^1, Ile^8]-Ang II, the Ki value of the compound of the present invention was calculated and used as an index of the affinity for AT2 receptor.

Ki | Structure (SMILES)
6.1 nM | CC(C)N(C(=O)C(CC1CC1)C(=O)NS(=O)(=O)/C=C/c1ccccc1)c1ccc(F)cc1 (single isomer, unassigned) [Example 516, (2S or 2R)-2-cyclopropylmethyl-N-(4-fluorophenyl)-N-isopropyl-N′-((E)-2-styrylsulfonyl)malonamide]
11 nM | CCN(C(=O)C(CC(=O)N1CCc2ccccc2C1)C(=O)NS(=O)(=O)/C=C/c1ccccc1)c1ccccc1 (stereo not shown) [Example 441, 2-[2-(3,4-dihydroisoquinolin-2(1H)-yl)-2-oxoethyl]-N-ethyl-N-phenyl-N′-((E)-styrylsulfonyl)malonamide]
13 nM | C=CCC(C(=O)NS(=O)(=O)/C=C/c1ccccc1)C(=O)N(CC)c1cccc(C(F)(F)F)c1 (stereo not shown) [Example 475, 2-allyl-N-ethyl-N′-((E)-styrylsulfonyl)-N-(3-trifluoromethylphenyl)malonamide]
9 nM | C=CCC(C(=O)NS(=O)(=O)/C=C/c1ccccc1)C(=O)N(c1ccc(F)cc1)C(C)C (stereo not shown) [Example 481, 2-allyl-N-(4-fluorophenyl)-N-isopropyl-N′-((E)-styrylsulfonyl)malonamide]
9.2 nM | CC(C)CC(C(=O)NS(=O)(=O)/C=C/c1ccccc1)C(=O)N(c1ccc(F)cc1)C(C)C (stereo not shown) [Example 491, N-(4-fluorophenyl)-2-isobutyl-N-isopropyl-N′-((E)-styrylsulfonyl)malonamide]
5.2 nM | CC(C)CC(C(=O)NS(=O)(=O)CCc1ccccc1)C(=O)N(c1ccc(F)cc1)C(C)C (stereo not shown) [Example 493, N-(4-fluorophenyl)-2-isobutyl-N-isopropyl-N′-phenethylsulfonylmalonamide]
8.4 nM | CC(C)CC(C(=O)NS(=O)(=O)c1ccc2ccccc2c1)C(=O)N(c1ccc(F)cc1)C(C)C (stereo not shown) [Example 495, N-(4-fluorophenyl)-2-isobutyl-N-isopropyl-N′-(2-naphthylsulfonyl)malonamide]
12 nM | CC(C)CC(C(=O)NS(=O)(=O)CCCOc1ccccc1)C(=O)N(c1ccc(F)cc1)C(C)C (stereo not shown) [Example 496, N-(4-fluorophenyl)-2-isobutyl-N-isopropyl-N′-(3-phenoxypropylsulfonyl)malonamide]
10 nM | CC(C)N(C(=O)C(CC1CC1)C(=O)NS(=O)(=O)CCc1ccccc1)c1ccc(F)cc1 (stereo not shown) [Example 529, 2-cyclopropylmethyl-N-(4-fluorophenyl)-N-isopropyl-N′-phenethylsulfonylmalonamide]
13 nM | CC(C)N(C(=O)C(CC1CC1)C(=O)NS(=O)(=O)c1ccc2ccccc2c1)c1ccc(F)cc1 (stereo not shown) [Example 530, 2-cyclopropylmethyl-N-(4-fluorophenyl)-N-isopropyl-N′-(2-naphthylsulfonyl)malonamide]

Second part, the compound before the results:

Structure (SMILES) | Ki
CCN(CC)C(=O)C(Cc1ccc(NC(=O)c2c(F)cccc2F)cc1)C(=O)NS(=O)(=O)c1ccc2ccccc2c1 (stereo not shown) [Example 22, N,N-diethyl-2-{4-[(2,6-difluorobenzoyl)amino]benzyl}-N′-(2-naphthylsulfonyl)malonamide] | 8 nM
CCN(CC)C(=O)C(Cc1ccc(NC(=O)Oc2ccccc2)cc1)C(=O)NS(=O)(=O)c1ccc2ccccc2c1 (stereo not shown) [Example 87, N,N-diethyl-N′-(2-naphthylsulfonyl)-2-[4-(phenoxycarbonylamino)benzyl]malonamide] | 23 nM
CCN(CC)C(=O)[C@H](Cc1ccc(NC(=O)c2ccccc2)cc1)C(=O)NS(=O)(=O)c1ccc2ccccc2c1 [Example 92, (2S)-2-[4-(benzoylamino)benzyl]-N,N-diethyl-N′-(2-naphthylsulfonyl)malonamide] | 2.3 nM
CCN(CC)C(=O)[C@H](Cc1ccc(NC(=O)c2cc(F)ccc2N)cc1)C(=O)NS(=O)(=O)c1ccc2ccccc2c1 [Example 99, (2S)-2-{4-[(2-amino-5-fluorobenzoyl)amino]benzyl}-N,N-diethyl-N′-(2-naphthylsulfonyl)malonamide] | 0.9 nM
CCN(CC)C(=O)[C@H](Cc1ccc(NC(=O)c2c(N)cccc2F)cc1)C(=O)NS(=O)(=O)c1ccc2ccccc2c1 [Example 100, (2S)-2-{4-[(2-amino-6-fluorobenzoyl)amino]benzyl}-N,N-diethyl-N′-(2-naphthylsulfonyl)malonamide] | 1.8 nM
CCN(CC)C(=O)[C@H](Cc1ccc(NC(=O)c2ccccn2)cc1)C(=O)NS(=O)(=O)c1ccc2ccccc2c1 [Example 101, (2S)—N,N-diethyl-N′-(2-naphthylsulfonyl)-2-{4-[(2-pyridylcarbonyl)amino]benzyl}malonamide] | 16 nM
CCN(CC)C(=O)[C@H](Cc1ccc(NC(=O)c2ccc(Cl)cc2N)cc1)C(=O)NS(=O)(=O)c1ccc2ccccc2c1 [Example 103, (2S)-2-{4-[(2-amino-4-chlorobenzoyl)amino]benzyl}-N,N-diethyl-N′-(2-naphthylsulfonyl)malonamide] | 3.2 nM
CCN(CC)C(=O)[C@H](Cc1ccc(NC(=O)c2ccccc2N)cc1)C(=O)NS(=O)(=O)c1ccc2ccccc2c1 [Example 104, (2S)-2-{4-[(2-aminobenzoyl)amino]benzyl}-N,N-diethyl-N′-(2-naphthylsulfonyl)malonamide] | 3.3 nM
CCN(CC)C(=O)[C@H](Cc1ccc(NC(=O)c2cc(Cl)ccc2N)cc1)C(=O)NS(=O)(=O)c1ccc2ccccc2c1 [Example 105, (2S)-2-{4-[(2-amino-5-chlorobenzoyl)amino]benzyl}-N,N-diethyl-N′-(2-naphthylsulfonyl)malonamide] | 5.4 nM
CCN(CC)C(=O)[C@H](Cc1ccc(NC(=O)c2cc(F)c(F)cc2N)cc1)C(=O)NS(=O)(=O)c1ccc2ccccc2c1 [Example 106, (2S)-2-{4-[(2-amino-4,5-difluorobenzoyl)amino]benzyl}-N,N-diethyl-N′-(2-naphthylsulfonyl)malonamide] | 1.6 nM
CCN(CC)C(=O)[C@H](Cc1ccc(NC(=O)c2ccc(F)cc2N)cc1)C(=O)NS(=O)(=O)c1ccc2ccccc2c1 [Example 107, (2S)-2-{4-[(2-amino-4-fluorobenzoyl)amino]benzyl}-N,N-diethyl-N′-(2-naphthylsulfonyl)malonamide] | 1.6 nM
CCN(CC)C(=O)[C@H](Cc1ccc(NC(=O)c2cc(C)ccc2N)cc1)C(=O)NS(=O)(=O)c1ccc2ccccc2c1 [Example 108, (2S)-2-{4-[(2-amino-5-methylbenzoyl)amino]benzyl}-N,N-diethyl-N′-(2-naphthylsulfonyl)malonamide] | 9.7 nM
CCN(CC)C(=O)C(CCCc1ccc(N)cc1)C(=O)NS(=O)(=O)c1ccc2ccccc2c1 (stereo not shown) [Example 147, 2-[3-(4-aminophenyl)propyl]-N,N-diethyl-N′-(2-naphthylsulfonyl)malonamide] | 34 nM
CC(C)N(C(=O)C(Cc1ccc(F)cc1)C(=O)NS(=O)(=O)/C=C/c1ccccc1)c1cccnc1 (stereo not shown) [Example 322, 2-(4-fluorobenzyl)-N-isopropyl-N-(3-pyridyl)-N′-((E)-styrylsulfonyl)malonamide] | 6.4 nM
CCN(C(=O)C(Cc1cnn(Cc2ccccc2)c1)C(=O)NS(=O)(=O)/C=C/c1ccccc1)c1ccccc1 (stereo not shown) [Example 371, 2-[(1-benzyl-1H-pyrazol-4-yl)methyl]-N-ethyl-N-phenyl-N′-((E)-styrylsulfonyl)malonamide] | 12 nM
